The target of this assay is Thymidylate synthase (Homo sapiens, UniProt P04818). Nature of the assay: Inhibition of thymidylate synthase.

This is an account of results in ChEMBL document CHEMBL1157058, “3D-QSAR studies on quinazoline antifolate thymidylate synthase inhibitors by CoMFA and CoMSIA models” (Eur J Med Chem, 2010).

Sequence of Thymidylate synthase (P04818 whole entry): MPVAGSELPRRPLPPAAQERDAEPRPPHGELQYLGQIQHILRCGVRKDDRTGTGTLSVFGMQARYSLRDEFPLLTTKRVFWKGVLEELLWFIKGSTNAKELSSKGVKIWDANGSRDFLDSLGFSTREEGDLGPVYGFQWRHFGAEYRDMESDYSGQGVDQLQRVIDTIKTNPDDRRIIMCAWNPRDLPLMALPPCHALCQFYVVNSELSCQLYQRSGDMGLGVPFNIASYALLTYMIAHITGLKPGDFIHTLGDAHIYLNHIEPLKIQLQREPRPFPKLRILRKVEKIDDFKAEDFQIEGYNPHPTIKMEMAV

Usually IC50 stands for the point on the concentration scale where inhibition reaches its midpoint. A low value points to greater potency in that assay. The compound `C#CCN(Cc1ccc2nc(C)[nH]c(=O)c2c1)c1ccc(C(=O)N[C@@H](CCC(=O)O)C(=O)O)c(F)c1` showed an IC50 of 20 nM. `CCN(Cc1ccc2nc(C)[nH]c(=O)c2c1)c1ccc(C(=O)N[C@@H](CCC(=O)O)C(=O)O)nc1`: the midpoint of inhibition, the IC50, lay at 151 nM. The value for `Cc1nc2ccc(CN(C)c3ccc(C(=O)N[C@@H](CCC(=O)O)C(=O)O)c(F)c3)cc2c(=O)[nH]1` was 120 nM; that for `Cc1nc2ccc(CN(CCF)c3cnc(C(=O)N[C@@H](CCC(=O)O)C(=O)O)s3)cc2c(=O)[nH]1` was 191 nM. As to `COCCN(Cc1ccc2nc(C)[nH]c(=O)c2c1)c1ccc(C(=O)N[C@@H](CCC(=O)O)C(=O)O)cc1`, the midpoint of inhibition, the IC50, lay at 16200 nM. The value for `CCCN(Cc1ccc2nc(C)[nH]c(=O)c2c1)c1ccc(C(=O)N[C@@H](CCC(=O)O)C(=O)O)s1` was 1860 nM; that for `Cc1nc2ccc(CN(C)c3ccc(C(=O)N[C@@H](CCC(=O)O)C(=O)O)cc3F)cc2c(=O)[nH]1` was 1150 nM; that for `C#CCN(Cc1ccc2nc(C)[nH]c(=O)c2c1)c1ccc(C(=O)N[C@@H](CCC(=O)O)C(=O)O)c(N)c1` was 288 nM. Compound `C#CCN(Cc1ccc2nc[nH]c(=O)c2c1)c1ccc(C(=O)N[C@@H](CCC(=O)O)C(=O)O)c(F)c1` gave an IC50 of 57.5 nM.

`C#CCN(Cc1ccc2nc(C)[nH]c(=O)c2c1)c1ccc(C(=O)N[C@@H](CCC(=O)O)C(=O)O)c(OC)c1`: the IC50 is 67.6 nM. `Cc1nc2ccc(CNc3ccc(C(=O)N[C@@H](CCC(=O)O)C(=O)O)s3)cc2c(=O)[nH]1` gave an IC50 of 24500 nM. To `C#CCN(Cc1ccc2nc(C)[nH]c(=O)c2c1)c1cnc(C(=O)N[C@@H](CCC(=O)O)C(=O)O)s1` belongs 229 nM; to `COCCCN(Cc1ccc2nc(C)[nH]c(=O)c2c1)c1ccc(C(=O)N[C@@H](CCC(=O)O)C(=O)O)cc1`, 12900 nM; to `CCN(Cc1ccc2nc(C)[nH]c(=O)c2c1)c1ccc(C(=O)N[C@@H](CCC(=O)O)C(=O)O)c(Cl)c1`, 120 nM. The value for `C=CCN(Cc1ccc2nc(C)[nH]c(=O)c2c1)c1cnc(C(=O)N[C@@H](CCC(=O)O)C(=O)O)s1` was 1070 nM. To `Cc1nc2ccc(CN(CCCO)c3ccc(C(=O)N[C@@H](CCC(=O)O)C(=O)O)cc3F)cc2c(=O)[nH]1` belongs 977 nM. The compound `CCN(Cc1ccc2nc(C)[nH]c(=O)c2c1)c1ccc(C(=O)N[C@@H](CCC(=O)O)C(=O)O)cc1F` had an IC50 of 676 nM. To `Cc1nc2ccc(CN(C)c3ccc(C(=O)N[C@@H](CCC(=O)O)C(=O)O)cn3)cc2c(=O)[nH]1` belongs 4270 nM. `Cc1nc2ccc(CN(CCO)c3cnc(C(=O)N[C@@H](CCC(=O)O)C(=O)O)s3)cc2c(=O)[nH]1` showed an IC50 of 417 nM. As for `C#CCN(Cc1ccc2nc(C)[nH]c(=O)c2c1)c1ccc(C(=O)N[C@@H](CCC(=O)O)C(=O)O)s1`, the IC50 is 437 nM. The value for `C#CCN(Cc1ccc2nc(C)[nH]c(=O)c2c1)c1ccc(C(=O)N[C@@H](CCC(=O)O)C(=O)O)c(Cl)c1` was 74.1 nM; that for `Cc1nc2ccc(CN(CCF)c3ccc(C(=O)N[C@@H](CCC(=O)O)C(=O)O)cc3)cc2c(=O)[nH]1` was 240 nM. To `CCN(Cc1ccc2nc(C)[nH]c(=O)c2c1)c1ccc(C(=O)N[C@@H](CCC(=O)O)C(=O)O)c([N+](=O)[O-])c1` belongs 145 nM. To `Cc1nc2ccc(CN(CCS)c3ccc(C(=O)N[C@@H](CCC(=O)O)C(=O)O)cc3)cc2c(=O)[nH]1` belongs 1780 nM; to `Cc1nc2ccc(CNc3ccc(C(=O)N[C@@H](CCC(=O)O)C(=O)O)c(F)c3)cc2c(=O)[nH]1`, 3800 nM; to `C=CCN(Cc1ccc2nc(C)[nH]c(=O)c2c1)c1ccc(C(=O)N[C@@H](CCC(=O)O)C(=O)O)cc1F`, 5130 nM. Consider `C=CCN(Cc1ccc2nc(C)[nH]c(=O)c2c1)c1ccc(C(=O)N[C@@H](CCC(=O)O)C(=O)O)cc1`, for which the midpoint of inhibition, the IC50, lay at 479 nM. Compound `C#CCN(Cc1ccc2nc(C)[nH]c(=O)c2c1)c1ccc(C(=O)N[C@@H](CCC(=O)O)C(=O)O)c(O)c1` had an IC50 of 89.1 nM.

`Cc1nc2ccc(CN(CCCO)c3ccc(C(=O)N[C@@H](CCC(=O)O)C(=O)O)s3)cc2c(=O)[nH]1`: the IC50 is 3390 nM.

For the compound `CCN(Cc1ccc2nc(C)[nH]c(=O)c2c1)c1nnc(C(=O)N[C@@H](CCC(=O)O)C(=O)O)s1`, the IC50 is 933 nM.

The compound `Cc1nc2ccc(CN(CCO)c3ccc(C(=O)N[C@@H](CCC(=O)O)C(=O)O)c(F)c3)cc2c(=O)[nH]1` showed an IC50 of 77.6 nM. The value for `CCN(Cc1ccc2nc(C)[nH]c(=O)c2c1)c1ncc(C(=O)N[C@@H](CCC(=O)O)C(=O)O)s1` was 759 nM; that for `Cc1nc2ccc(CN(CCBr)c3ccc(C(=O)N[C@@H](CCC(=O)O)C(=O)O)cc3)cc2c(=O)[nH]1` was 1290 nM. For the compound `CCN(Cc1ccc2nc(C)[nH]c(=O)c2c1)c1ccc(C(=O)N[C@@H](CCC(=O)O)C(=O)O)c(N)c1`, inhibition was half-maximal at 309 nM (IC50). On to `C#CCN(Cc1ccc2nc(C)[nH]c(=O)c2c1)c1ccc(C(=O)N[C@@H](CCC(=O)O)C(=O)O)cc1F`, for which the IC50 was 1450 nM. The value for `Cc1nc2ccc(CN(CCO)c3ccc(C(=O)N[C@@H](CCC(=O)O)C(=O)O)cc3F)cc2c(=O)[nH]1` was 3550 nM; that for `Cc1nc2ccc(CN(C)c3ccc(C(=O)N[C@@H](CCC(=O)O)C(=O)O)c(C)c3)cc2c(=O)[nH]1` was 933 nM; that for `C#CCN(Cc1ccc2nc(C)[nH]c(=O)c2c1)c1ccc(C(=O)N[C@@H](CCC(=O)O)C(=O)O)nc1` was 39.8 nM.

As to `Cc1nc2ccc(CN(C)c3ccc(C(=O)N[C@@H](CCC(=O)O)C(=O)O)c(N)c3)cc2c(=O)[nH]1`, the IC50 was 851 nM.

In turn, `Cc1nc2ccc(CN(C)c3cnc(C(=O)N[C@@H](CCC(=O)O)C(=O)O)s3)cc2c(=O)[nH]1` showed an IC50 of 417 nM.

Take `CN(Cc1ccc2nc(CF)[nH]c(=O)c2c1)c1ccc(C(=O)N[C@@H](CCC(=O)O)C(=O)O)cc1`: the 50% inhibitory concentration (IC50) is 2880 nM. As to `C=CCN(Cc1ccc2nc(C)[nH]c(=O)c2c1)c1ccc(C(=O)N[C@@H](CCC(=O)O)C(=O)O)s1`, the IC50 is 1660 nM. Regarding `Cc1nc2ccc(CN(CCF)c3ccc(C(=O)N[C@@H](CCC(=O)O)C(=O)O)c(F)c3)cc2c(=O)[nH]1`, half-maximal inhibition (IC50) required 42.7 nM. The value for `Cc1nc2ccc(CN(CCCO)c3ccc(C(=O)N[C@@H](CCC(=O)O)C(=O)O)cc3)cc2c(=O)[nH]1` was 537 nM; that for `CCN(Cc1ccc2nc(C)[nH]c(=O)c2c1)c1ccc(C(=O)N[C@@H](CCC(=O)O)C(=O)O)cc1` was 170 nM; that for `CCc1nc2ccc(CNc3ccc(C(=O)N[C@@H](CCC(=O)O)C(=O)O)cc3)cc2c(=O)[nH]1` was 20000 nM. The value for `Cc1nc2ccc(CN(CCF)c3ccc(C(=O)N[C@@H](CCC(=O)O)C(=O)O)s3)cc2c(=O)[nH]1` was 550 nM; that for `Cc1nc2ccc(CN(C)c3cnc(C(=O)N[C@@H](CCC(=O)O)C(=O)O)nc3)cc2c(=O)[nH]1` was 2340 nM; that for `C=CCN(Cc1ccc2nc(C)[nH]c(=O)c2c1)c1ccc(C(=O)N[C@@H](CCC(=O)O)C(=O)O)c(F)c1` was 75.9 nM.

`Cc1nc2ccc(CN(CCF)c3ccc(C(=O)N[C@@H](CCC(=O)O)C(=O)O)cc3F)cc2c(=O)[nH]1` showed an IC50 of 1740 nM. On to `CC(=O)CN(Cc1ccc2nc(C)[nH]c(=O)c2c1)c1ccc(C(=O)N[C@@H](CCC(=O)O)C(=O)O)cc1`, for which 25100 nM corresponded to half-maximal inhibition (IC50). Compound `CCN(Cc1ccc2nc(C)[nH]c(=O)c2c1)c1cnc(C(=O)N[C@@H](CCC(=O)O)C(=O)O)s1` showed an IC50 of 229 nM. `C#CCN(Cc1ccc2nc(C)[nH]c(=O)c2c1)c1ccc(C(=O)N[C@@H](CCC(=O)O)C(=O)O)c([N+](=O)[O-])c1`: the IC50 is 129 nM. The compound `CCN(Cc1ccc2nc(C)[nH]c(=O)c2c1)c1ccc(C(=O)N[C@@H](CCC(=O)O)C(=O)O)c(C)c1` had an IC50 of 316 nM. `Cc1nc2ccc(CN(C)c3ccc(C(=O)N[C@@H](CCC(=O)O)C(=O)O)nc3)cc2c(=O)[nH]1` gave an IC50 of 347 nM. The value for `Cc1nc2ccc(CN(CCN)c3ccc(C(=O)N[C@@H](CCC(=O)O)C(=O)O)c(F)c3)cc2c(=O)[nH]1` was 11700 nM; that for `CCN(Cc1ccc2nc(C)[nH]c(=O)c2c1)c1ccc(C(=O)N[C@@H](CCC(=O)O)C(=O)O)c(OC)c1` was 191 nM. To `C#CCN(Cc1ccc2nc(C)[nH]c(=O)c2c1)c1ccc(C(=O)N[C@@H](CCC(=O)O)C(=O)O)c(C(F)(F)F)c1` belongs 479 nM; to `Cc1nc2ccc(CN(CC(N)=O)c3ccc(C(=O)N[C@@H](CCC(=O)O)C(=O)O)c(F)c3)cc2c(=O)[nH]1`, 1350 nM. To `Cc1nc2ccc(CNc3ccc(C(=O)N[C@@H](CCC(=O)O)C(=O)O)cc3)cc2c(=O)[nH]1` belongs 4470 nM; to `C#CCN(Cc1ccc2nc(OC)[nH]c(=O)c2c1)c1ccc(C(=O)N[C@@H](CCC(=O)O)C(=O)O)c(F)c1`, 36.3 nM; to `C#CCN(Cc1ccc2nc(N)[nH]c(=O)c2c1)c1ccc(C(=O)N[C@@H](CCC(=O)O)C(=O)O)c(F)c1`, 8.91 nM. In turn, `Cc1nc2ccc(CN(CCCO)c3ccc(C(=O)N[C@@H](CCC(=O)O)C(=O)O)c(F)c3)cc2c(=O)[nH]1` gave a half-inhibitory concentration (IC50) of 589 nM. The value for `CCN(Cc1ccc2nc(C)[nH]c(=O)c2c1)c1ccc(C(=O)N[C@@H](CCC(=O)O)C(=O)O)c(F)c1` was 44.7 nM; that for `Cc1nc2ccc(CN(CCCO)c3cnc(C(=O)N[C@@H](CCC(=O)O)C(=O)O)s3)cc2c(=O)[nH]1` was 1740 nM; that for `Cc1nc2ccc(CN(C)c3ccc(C(=O)N[C@@H](CCC(=O)O)C(=O)O)cc3)cc2c(=O)[nH]1` was 302 nM. To `Cc1nc2ccc(CN(CCO)c3ccc(C(=O)N[C@@H](CCC(=O)O)C(=O)O)s3)cc2c(=O)[nH]1` belongs 1200 nM; to `C#CCN(Cc1ccc2nc(C)[nH]c(=O)c2c1)c1ccc(C(=O)N[C@@H](CCC(=O)O)C(=O)O)c(C)c1`, 501 nM; to `Cc1nc2ccc(CN(CCO)c3ccc(C(=O)N[C@@H](CCC(=O)O)C(=O)O)cc3)cc2c(=O)[nH]1`, 501 nM.

Consider `Cc1nc2ccc(CN(CC#N)c3ccc(C(=O)N[C@@H](CCC(=O)O)C(=O)O)c(F)c3)cc2c(=O)[nH]1`, for which the half-maximal inhibitory concentration (IC50) is 170 nM. The value for `Cc1nc2ccc(CN(CCF)c3ccc(C(=O)N[C@@H](CCC(=O)O)C(=O)O)nc3)cc2c(=O)[nH]1` was 158 nM; that for `Cc1nc2ccc(CN(CC#N)c3ccc(C(=O)N[C@@H](CCC(=O)O)C(=O)O)s3)cc2c(=O)[nH]1` was 3090 nM.
